Data published in patent publication US20190249218A1, “Method, Medium and Kit for Detecting Multiple Aminoglycoside Resistance Including 16S rRNA Methylase Mediated Resistance in Gram-Negative Bacteria” (priority 2016, published 2019).

Key:
Assay in all cases: MIC by broth microdilution
P. mirabilis = assay type: cell-based, Proteus mirabilis
Protocol: (§1) MICs of amikacin and gentamicin were determined using the broth microdilution method in cation-adjusted Mueller-Hinton broth, as recommended by the Clinical Laboratory Standard Institute (CLSI) guidelines (8). Amikacin and gentamicin sulfate (Fluorochem, Dertbyshire, UK) were tested over a range of dilutions from 0.25 to 256 μg/ml. A final inoculum of 5.10^5 CFU/ml of each strain was distributed in the 96 wells tray (Sarstedt, Ntimbrecht, Germany). All experiments were repeated in triplicate and E. coli ATCC 25922 was used as quality control. According to the CLSI breakpoints (9), Enterobacteriaceae isolates with gentamicin MICs≤4 and amikacin MICs≤16 mg/L were categorized as susceptible, while those with gentamicin MICs≥16 and amikacin MICs≥64 mg/L were categorized as resistant.
(§2) MICs of amikacin and gentamicin were determined as described above in Example 1.

E. cloacae = assay type: cell-based, Enterobacter cloacae
Protocol: as §1, §2

K. pneumoniae = assay type: cell-based, Klebsiella pneumoniae
Protocol: as §1, §2

S. marcescens = assay type: cell-based, Serratia marcescens; conditions: AAC(3)-I
Protocol: as §1, §2

A. baumannii = assay type: cell-based, Acinetobacter baumannii
Protocol: as §1, §2

P. rettgeri = assay type: cell-based, Providencia rettgeri; conditions: AAC(2′)
Protocol: as §1, §2

P. stuartii = assay type: cell-based, Providencia stuartii
Protocol: as §1, §2

P. aeruginosa = assay type: cell-based, Pseudomonas aeruginosa
Protocol: as §1, §2

[1] = isolate R2260, P. mirabilis, AG susceptible
[2] = isolate 1110, E. cloacae, ANT(2″)
[3] = isolate HM, E. cloacae, AG susceptible
[4] = isolate R713, E. cloacae, AG susceptible
[5] = isolate R1433, E. cloacae, AG susceptible
[6] = isolate R2258, E. cloacae, armA
[7] = isolate 1800, K. pneumoniae, AAC(6′)-I + AAC(3)-I
[8] = isolate 13000, K. pneumoniae, APH(3′)-I + AAC(3)-V
[9] = isolate 22233, K. pneumoniae, AAC(3)-V
[10] = isolate N34, K. pneumoniae, rmtC
[11] = isolate R108, K. pneumoniae, armA
[12] = isolate R347, K. pneumoniae, AG susceptible
[13] = isolate R500, K. pneumoniae, armA
[14] = isolate R502, K. pneumoniae, rmtF
[15] = isolate R2160, K. pneumoniae, rmtG
[16] = isolate R2257, K. pneumoniae, armA
[17] = isolate S155, K. pneumoniae, AG susceptible
[18] = isolate BM2667, P. stuartii, APH(3′)-VI + AAC(2′)
[19] = isolate R265, P. stuartii, rmtC

Gentamicin
Gentamicin Phenotype (P. mirabilis; [1]): S (gentamicin MICs≤4) | MIC (P. mirabilis; [1]): 4 µg/mL | MIC (P. mirabilis; strain R263, P. mirabilis, armA): >256 µg/mL | MIC (P. mirabilis; strain R2260, P. mirabilis, susceptible): 4 µg/mL | Gentamicin Phenotype (E. cloacae; [2]): R (gentamicin MICs≥16) | MIC (E. cloacae; [2]): 32 µg/mL | Gentamicin Phenotype (E. cloacae; [3]): S (gentamicin MICs≤4) | MIC (E. cloacae; [3]): 2 µg/mL | Gentamicin Phenotype (E. cloacae; [4]): S (gentamicin MICs≤4) | MIC (E. cloacae; [4]): 0.5 µg/mL | Gentamicin Phenotype (E. cloacae; [5]): S (gentamicin MICs≤4) | MIC (E. cloacae; [5]): 2 µg/mL | Gentamicin Phenotype (E. cloacae; [6]): R (gentamicin MICs≥16) | MIC (E. cloacae; [6]): >256 µg/mL | MIC (E. cloacae; strain 1110, E. cloacae, ANT(2″)): 32 µg/mL | MIC (E. cloacae; strain HM, E. cloacae, susceptible): 2 µg/mL | MIC (E. cloacae; strain R713, E. cloacae, susceptible): 0.5 µg/mL | MIC (E. cloacae; strain R1433, E. cloacae, susceptible): 2 µg/mL | MIC (E. cloacae; strain R2258, E. cloacae, armA): >256 µg/mL | Gentamicin Phenotype (K. pneumoniae; [7]): R (gentamicin MICs≥16) | MIC (K. pneumoniae; [7]): 16 µg/mL | Gentamicin Phenotype (K. pneumoniae; [8]): R (gentamicin MICs≥16) | MIC (K. pneumoniae; [8]): 128 µg/mL | Gentamicin Phenotype (K. pneumoniae; [9]): R (gentamicin MICs≥16) | MIC (K. pneumoniae; [9]): 128 µg/mL | Gentamicin Phenotype (K. pneumoniae; [10]): R (gentamicin MICs≥16) | MIC (K. pneumoniae; [10]): >256 µg/mL | Gentamicin Phenotype (K. pneumoniae; [11]): R (gentamicin MICs≥16) | MIC (K. pneumoniae; [11]): >256 µg/mL | Gentamicin Phenotype (K. pneumoniae; [12]): S (gentamicin MICs≤4) | MIC (K. pneumoniae; [12]): 0.5 µg/mL | Gentamicin Phenotype (K. pneumoniae; [13]): R (gentamicin MICs≥16) | MIC (K. pneumoniae; [13]): >256 µg/mL | Gentamicin Phenotype (K. pneumoniae; [14]): R (gentamicin MICs≥16) | MIC (K. pneumoniae; [14]): >256 µg/mL | Gentamicin Phenotype (K. pneumoniae; [15]): R (gentamicin MICs≥16) | MIC (K. pneumoniae; [15]): >256 µg/mL | Gentamicin Phenotype (K. pneumoniae; [16]): R (gentamicin MICs≥16) | MIC (K. pneumoniae; [16]): >256 µg/mL | Gentamicin Phenotype (K. pneumoniae; [17]): S (gentamicin MICs≤4) | MIC (K. pneumoniae; [17]): 0.5 µg/mL | MIC (K. pneumoniae; strain 1800, K. pneumoniae, AAC(6′)-I + AAC(3)-I): 16 µg/mL | MIC (K. pneumoniae; strain 13000, K. pneumoniae, APH(3′)-I + AAC(3)-V): 128 µg/mL | MIC (K. pneumoniae; strain 22233, K. pneumoniae, AAC(3)-V): 128 µg/mL | MIC (K. pneumoniae; strain N34, K. pneumoniae, rmtC): >256 µg/mL | MIC (K. pneumoniae; strain R108, K. pneumoniae, armA): >256 µg/mL | MIC (K. pneumoniae; strain R347, K. pneumoniae, susceptible): 0.5 µg/mL | MIC (K. pneumoniae; strain R500, K. pneumoniae, armA): >256 µg/mL | MIC (K. pneumoniae; strain R502, K. pneumoniae, rmtF): >256 µg/mL | MIC (K. pneumoniae; strain R2160, K. pneumoniae, rmtG): >256 µg/mL | MIC (K. pneumoniae; strain R2257, K. pneumoniae, armA): >256 µg/mL | MIC (K. pneumoniae; strain S155, K. pneumoniae, susceptible): 0.5 µg/mL | Gentamicin Phenotype (S. marcescens; isolate 4290, S. marcescens): R (gentamicin MICs≥16) | MIC (S. marcescens; isolate 4290, S. marcescens): 64 µg/mL | MIC (S. marcescens; strain 4290, S. marcescens): 64 µg/mL | MIC (A. baumannii; strain 4996, A. baumannii, AAC(6′)-I): 4 µg/mL | MIC (A. baumannii; strain 8541, A. baumannii, APH(3′)-VI): 0.5 µg/mL | MIC (A. baumannii; strain BM2580, A. baumannii, APH(3′)-VI): 2 µg/mL | MIC (A. baumannii; strain R264, A. baumannii, armA): >256 µg/mL | MIC (A. baumannii; strain R1395, A. baumannii, susceptible): 1 µg/mL | Gentamicin Phenotype (P. rettgeri; isolate 531, P. rettgeri): S (gentamicin MICs≤4) | MIC (P. rettgeri; isolate 531, P. rettgeri): 4 µg/mL | MIC (P. rettgeri; strain 531, P. rettgeri): 4 µg/mL | Gentamicin Phenotype (P. stuartii; [18]): S (gentamicin MICs≤4) | MIC (P. stuartii; [18]): 8 µg/mL | Gentamicin Phenotype (P. stuartii; isolate R38, P. stuartii, rmtC): R (gentamicin MICs≥16) | MIC (P. stuartii; isolate R38, P. stuartii, rmtC): >256 µg/mL | Gentamicin Phenotype (P. stuartii; [19]): R (gentamicin MICs≥16) | MIC (P. stuartii; [19]): >256 µg/mL | MIC (P. stuartii; strain BM2667, P. stuartii, APH(3′)-VI + AAC(2′)): 16 µg/mL | MIC (P. stuartii; strain R38, P. stuartii, rmtC): >256 µg/mL | MIC (P. stuartii; strain R265, P. stuartii, rmtC): >256 µg/mL | MIC (P. aeruginosa; strain 3655, P. aeruginosa, APH(3′)-I + ANT(2″)): 4 µg/mL | MIC (P. aeruginosa; strain 3656, P. aeruginosa, APH(3′)-I + ANT(4′)-II): 8 µg/mL | MIC (P. aeruginosa; strain 3658, P. aeruginosa, APH(3′)-I + ANT(4′)-II): 4 µg/mL | MIC (P. aeruginosa; strain 28233, P. aeruginosa, APH(3′)-I + AAC(3)-I): 1 µg/mL | MIC (P. aeruginosa; strain R191, P. aeruginosa, susceptible): 2 µg/mL
